Source: patent publication US20110105417A1, “Drug Conjugates” (The Curators of the University of Missouri, priority 2008, published 2011)

What was measured:
MDCK-WT cells = test: Non-radioactive uptake study of B-10HD-ACV on MDCK-WT cells; type: in vitro ADME, dog; conditions: 200 μM; for Average uptake: DPBS pH 5.4, 90 minutes; for Relative fold uptake: relative to acyclovir
Experimental: Non-radioactive uptake studies were performed for the above prodrugs on MDCK-WT cells after growing them for 7 days. The medium was aspirated and the cells were washed 3 times after an interval of 5 minutes each with DPBS pH 5.4. […] Uptake was carried out for 90 minutes. Uptake was terminated using ice cold DPBS pH 5.4. The cells were then washed 2 times using distilled deionized water and lysed overnight at −80° C. with 500 uL of distilled deionized water in each well. The samples were analyzed using LC-MS/MS.

Caco-2 cells monolayer = test: Non-radioactive cellular uptake study, Caco-2; conditions: 90 minutes (FIG. 4)
[1] = system: MDCK-MDR1 cell monolayers
Experimental: The medium was changed everyday after reaching confluence.
The experiments were carried out for 90 minutes.

MDCK-MDR1 cell monolayer = test: Non-radioactive cellular uptake study, MDCK-MDR1; conditions: pH 5.5, 90 minutes (FIG. 2)

SMILES	Average uptake (MDCK-WT cells) [pmoles/mg protein/min]	Relative fold uptake (MDCK-WT cells)	increase of uptake compared to ACV (MDCK-MDR1 cell monolayer)	increase of uptake compared to ACV (Caco-2 cells monolayer) [times]	other results
Nc1nc2c(ncn2COCCO)c(=O)[nH]1 [ACV, 9-(2-hydroxyethoxymethyl)guanine, reference compound]	4.56	1			
CCCCCCC(CCCCCCCCCCC(=O)OCCOCn1cnc2c(=O)[nH]c(N)nc21)OC(=O)CCCC[C@@H]1SC[C@@H]2NC(=O)N[C@@H]21 (stereo partly drawn) [B-12HS-ACV, Biotin-12-Hydroxystearicacid-ACV]				8.3	
Nc1nc2c(ncn2COCCOC(=O)CCCC[C@@H]2SC[C@@H]3NC(=O)N[C@@H]32)c(=O)[nH]1 [B-ACV, Biotin-ACV]					uptake in the presence of biotin versus in its absence [1]: significantly lesser
CCCCCC[C@@H](O)C/C=C\CCCCCCCC(=O)OCCOCn1cnc2c(=O)[nH]c(N)nc21 [R-ACV, Ricinoleicacid-ACV]			four	1.4	

More lines, main results first:

Average uptake (MDCK-WT cells) [pmoles/mg protein/min]	Relative fold uptake (MDCK-WT cells)	increase of uptake compared to ACV (MDCK-MDR1 cell monolayer)	SMILES	increase of uptake compared to ACV (Caco-2 cells monolayer) [times]	other results
199.74	43.73		Nc1nc2c(ncn2COCCOC(=O)CCCCCCCCCO)c(=O)[nH]1 [10HD-ACV, 2-((2-amino-6-oxo-1,6-dihydropurin-9-yl)methoxy)ethyl 10-hydroxy decanoate]		
		9.5 times	CCCCCC[C@H](C/C=C\CCCCCCCC(=O)OCCOCn1cnc2c(=O)[nH]c(N)nc21)OC(=O)CCCC[C@@H]1SC[C@@H]2NC(=O)N[C@@H]21 [B-R-ACV, Biotin-Ricinoleic acid-Acyclovir]		
